Organism: Rattus norvegicus
Assay: Open TG-GATES - Regimen: Single
Format: toxicity, organism-based, Sprague-Dawley
Design: regimen Single, gender Male, age 6 weeks
Details: in vivo, po, route gavage; for APTT / Bas / Eos / Fbg / Hb / Ht / Lym / MCH / MCHC / MCV / Mono / Neu / PT / Plat / RBC / Ret / WBC: tissue Blood; for KIDNEY_L / KIDNEY_R / KIDNEY_TOTAL: tissue Kidney; for LIVER: tissue Liver; for A/G / ALP / ALT / AST / BUN / CRE / Ca / Cl / DBIL / GLC / IP / K / LDH / Na / PL / RALB / TBIL / TC / TG / TP / gamma-GTP: tissue Plasma
[1] = 120 mg/kg, 3 h, dose level Middle
[2] = 120 mg/kg, 6 h, dose level Middle
[3] = 120 mg/kg, 9 h, dose level Middle
[4] = 120 mg/kg, 24 h, dose level Middle
[5] = 400 mg/kg, 3 h, dose level High
[6] = 400 mg/kg, 6 h, dose level High
[7] = 400 mg/kg, 9 h, dose level High
[8] = 400 mg/kg, 24 h, dose level High

COc1ccc(Cc2nccc3cc(OC)c(OC)cc23)cc1OC [PAPAVERINE]
TERMINAL_BW [1]: 221.6 g
APTT [1]: 22.7 s
Bas [1]: 0%
Eos [1]: 1%
Fbg [1]: 312.8 mg/dL
Hb [1]: 13.4 g/dL
Ht [1]: 40.5%
Lym [1]: 77.6%
MCH [1]: 20.9 pg
MCHC [1]: 33.2%
MCV [1]: 63 fL
Mono [1]: 2.4%
Neu [1]: 17.8%
PT [1]: 15.9 s
Plat [1]: 108.5 x10_4/uL
RBC [1]: 641.8 x10_4/ul
Ret [1]: 7.3%
WBC [1]: 88.5 x10_2/uL
KIDNEY_L [1]: 0.9 g
KIDNEY_R [1]: 1 g
KIDNEY_TOTAL [1]: 1.9 g
LIVER [1]: 9.5 g
A/G [1]: 1.2
ALP [1]: 1542 IU/L
ALT [1]: 43.6 IU/L
AST [1]: 78.6 IU/L
BUN [1]: 11.4 mg/dL
CRE [1]: 0.1 mg/dL
Ca [1]: 11 mg/dL
Cl [1]: 107.8 meq/L
DBIL [1]: 0 mg/dL
GLC [1]: 181.4 mg/dL
IP [1]: 8.7 mg/dL
K [1]: 4 meq/L
LDH [1]: 162.8 IU/L
Na [1]: 141.8 meq/L
PL [1]: 128.4 mg/dL
RALB [1]: 2.9 g/dL
TBIL [1]: 0.008 mg/dL
TC [1]: 74.6 mg/dL
TG [1]: 43.8 mg/dL
TP [1]: 5.3 g/dL
gamma-GTP [1]: 2 IU/L
TERMINAL_BW [2]: 219.8 g
APTT [2]: 20.9 s
Bas [2]: 0%
Eos [2]: 0.8%
Fbg [2]: 317.8 mg/dL
Hb [2]: 13 g/dL
Ht [2]: 39.5%
Lym [2]: 80.2%
MCH [2]: 20.9 pg
MCHC [2]: 32.9%
MCV [2]: 63.7 fL
Mono [2]: 2.8%
Neu [2]: 14.6%
PT [2]: 15.8 s
Plat [2]: 131.3 x10_4/uL
RBC [2]: 622.4 x10_4/ul
Ret [2]: 8.7%
WBC [2]: 116 x10_2/uL
KIDNEY_L [2]: 1 g
KIDNEY_R [2]: 1 g
KIDNEY_TOTAL [2]: 1.9 g
LIVER [2]: 9.5 g
A/G [2]: 1.3
ALP [2]: 1418.8 IU/L
ALT [2]: 36.6 IU/L
AST [2]: 71.6 IU/L
BUN [2]: 11.2 mg/dL
CRE [2]: 0.2 mg/dL
Ca [2]: 11.4 mg/dL
Cl [2]: 107.2 meq/L
DBIL [2]: 0 mg/dL
GLC [2]: 181 mg/dL
IP [2]: 9.4 mg/dL
K [2]: 4.3 meq/L
LDH [2]: 166.2 IU/L
Na [2]: 140.4 meq/L
PL [2]: 137.4 mg/dL
RALB [2]: 3.1 g/dL
TBIL [2]: 0.022 mg/dL
TC [2]: 78.2 mg/dL
TG [2]: 63.8 mg/dL
TP [2]: 5.5 g/dL
gamma-GTP [2]: 2.4 IU/L
TERMINAL_BW [3]: 217.8 g
APTT [3]: 22.6 s
Bas [3]: 0%
Eos [3]: 1%
Fbg [3]: 319.4 mg/dL
Hb [3]: 13.2 g/dL
Ht [3]: 39.5%
Lym [3]: 73.8%
MCH [3]: 20.6 pg
MCHC [3]: 33.4%
MCV [3]: 61.8 fL
Mono [3]: 2.8%
Neu [3]: 22%
PT [3]: 16.2 s
Plat [3]: 117.1 x10_4/uL
RBC [3]: 638.6 x10_4/ul
Ret [3]: 6.6%
WBC [3]: 87.6 x10_2/uL
KIDNEY_L [3]: 0.9 g
KIDNEY_R [3]: 1 g
KIDNEY_TOTAL [3]: 1.9 g
LIVER [3]: 8.9 g
A/G [3]: 1.2
ALP [3]: 1569.2 IU/L
ALT [3]: 39.2 IU/L
AST [3]: 72 IU/L
BUN [3]: 11.6 mg/dL
CRE [3]: 0.1 mg/dL
Ca [3]: 11 mg/dL
Cl [3]: 107.6 meq/L
DBIL [3]: 0 mg/dL
GLC [3]: 183.8 mg/dL
IP [3]: 8.9 mg/dL
K [3]: 3.9 meq/L
LDH [3]: 183.2 IU/L
Na [3]: 141 meq/L
PL [3]: 132.8 mg/dL
RALB [3]: 3 g/dL
TBIL [3]: 0.022 mg/dL
TC [3]: 74 mg/dL
TG [3]: 54.6 mg/dL
TP [3]: 5.4 g/dL
gamma-GTP [3]: 1.6 IU/L
TERMINAL_BW [4]: 231.5 g
APTT [4]: 19.5 s
Bas [4]: 0%
Eos [4]: 1%
Fbg [4]: 327.8 mg/dL
Hb [4]: 13.3 g/dL
Ht [4]: 39.7%
Lym [4]: 80.2%
MCH [4]: 21 pg
MCHC [4]: 33.5%
MCV [4]: 62.7 fL
Mono [4]: 2%
Neu [4]: 15.2%
PT [4]: 15.6 s
Plat [4]: 124.7 x10_4/uL
RBC [4]: 633.8 x10_4/ul
Ret [4]: 7.6%
WBC [4]: 82.4 x10_2/uL
KIDNEY_L [4]: 1 g
KIDNEY_R [4]: 1 g
KIDNEY_TOTAL [4]: 2 g
LIVER [4]: 11.2 g
A/G [4]: 1.3
ALP [4]: 1530.4 IU/L
ALT [4]: 39.4 IU/L
AST [4]: 67.6 IU/L
BUN [4]: 15 mg/dL
CRE [4]: 0.1 mg/dL
Ca [4]: 11.1 mg/dL
Cl [4]: 105.8 meq/L
DBIL [4]: 0 mg/dL
GLC [4]: 189 mg/dL
IP [4]: 7.8 mg/dL
K [4]: 4.2 meq/L
LDH [4]: 171.2 IU/L
Na [4]: 143.4 meq/L
PL [4]: 152.4 mg/dL
RALB [4]: 3.1 g/dL
TBIL [4]: 0.006 mg/dL
TC [4]: 79.2 mg/dL
TG [4]: 145.2 mg/dL
TP [4]: 5.6 g/dL
gamma-GTP [4]: 1.4 IU/L
TERMINAL_BW [5]: 228.2 g
APTT [5]: 23.4 s
Bas [5]: 0%
Eos [5]: 1%
Fbg [5]: 306.8 mg/dL
Hb [5]: 13.4 g/dL
Ht [5]: 40.3%
Lym [5]: 79%
MCH [5]: 20.7 pg
MCHC [5]: 33.3%
MCV [5]: 62 fL
Mono [5]: 2.4%
Neu [5]: 16.2%
PT [5]: 15.7 s
Plat [5]: 119 x10_4/uL
RBC [5]: 649.8 x10_4/ul
Ret [5]: 7.4%
WBC [5]: 64.1 x10_2/uL
KIDNEY_L [5]: 1 g
KIDNEY_R [5]: 1 g
KIDNEY_TOTAL [5]: 2 g
LIVER [5]: 9.9 g
A/G [5]: 1.2
ALP [5]: 1181 IU/L
ALT [5]: 39 IU/L
AST [5]: 66.8 IU/L
BUN [5]: 11.4 mg/dL
CRE [5]: 0.1 mg/dL
Ca [5]: 10.8 mg/dL
Cl [5]: 107.2 meq/L
DBIL [5]: 0 mg/dL
GLC [5]: 199.4 mg/dL
IP [5]: 9.7 mg/dL
K [5]: 4.1 meq/L
LDH [5]: 182 IU/L
Na [5]: 140.2 meq/L
PL [5]: 124 mg/dL
RALB [5]: 2.9 g/dL
TBIL [5]: 0.014 mg/dL
TC [5]: 75.2 mg/dL
TG [5]: 34 mg/dL
TP [5]: 5.4 g/dL
gamma-GTP [5]: 2.4 IU/L
TERMINAL_BW [6]: 223.8 g
APTT [6]: 22 s
Bas [6]: 0%
Eos [6]: 0.8%
Fbg [6]: 310.8 mg/dL
Hb [6]: 13.1 g/dL
Ht [6]: 40%
Lym [6]: 78%
MCH [6]: 20.6 pg
MCHC [6]: 32.9%
MCV [6]: 62.7 fL
Mono [6]: 3.6%
Neu [6]: 16.6%
PT [6]: 16 s
Plat [6]: 119.2 x10_4/uL
RBC [6]: 639 x10_4/ul
Ret [6]: 7.8%
WBC [6]: 84 x10_2/uL
KIDNEY_L [6]: 1 g
KIDNEY_R [6]: 1 g
KIDNEY_TOTAL [6]: 1.9 g
LIVER [6]: 9.2 g
A/G [6]: 1.2
ALP [6]: 1322.6 IU/L
ALT [6]: 36 IU/L
AST [6]: 73.6 IU/L
BUN [6]: 7.6 mg/dL
CRE [6]: 0.1 mg/dL
Ca [6]: 11.2 mg/dL
Cl [6]: 107.4 meq/L
DBIL [6]: 0.006 mg/dL
GLC [6]: 178.4 mg/dL
IP [6]: 10.2 mg/dL
K [6]: 4.3 meq/L
LDH [6]: 151.4 IU/L
Na [6]: 140.6 meq/L
PL [6]: 125.2 mg/dL
RALB [6]: 2.9 g/dL
TBIL [6]: 0.036 mg/dL
TC [6]: 75 mg/dL
TG [6]: 38.4 mg/dL
TP [6]: 5.3 g/dL
gamma-GTP [6]: 2 IU/L
TERMINAL_BW [7]: 221.7 g
APTT [7]: 23 s
Bas [7]: 0%
Eos [7]: 0.8%
Fbg [7]: 313.2 mg/dL
Hb [7]: 13.5 g/dL
Ht [7]: 40.5%
Lym [7]: 75%
MCH [7]: 20.8 pg
MCHC [7]: 33.3%
MCV [7]: 62.5 fL
Mono [7]: 2.2%
Neu [7]: 21%
PT [7]: 16.2 s
Plat [7]: 120.5 x10_4/uL
RBC [7]: 648.2 x10_4/ul
Ret [7]: 7.3%
WBC [7]: 73.1 x10_2/uL
KIDNEY_L [7]: 1 g
KIDNEY_R [7]: 1 g
KIDNEY_TOTAL [7]: 2 g
LIVER [7]: 8.5 g
A/G [7]: 1.3
ALP [7]: 1235.8 IU/L
ALT [7]: 26.8 IU/L
AST [7]: 64 IU/L
BUN [7]: 7.8 mg/dL
CRE [7]: 0.1 mg/dL
Ca [7]: 10.9 mg/dL
Cl [7]: 108.6 meq/L
DBIL [7]: 0.008 mg/dL
GLC [7]: 180.2 mg/dL
IP [7]: 9.5 mg/dL
K [7]: 4.3 meq/L
LDH [7]: 160 IU/L
Na [7]: 139.8 meq/L
PL [7]: 123.2 mg/dL
RALB [7]: 2.9 g/dL
TBIL [7]: 0.036 mg/dL
TC [7]: 68.2 mg/dL
TG [7]: 33.4 mg/dL
TP [7]: 5.3 g/dL
gamma-GTP [7]: 1.6 IU/L
TERMINAL_BW [8]: 240 g
APTT [8]: 21.2 s
Bas [8]: 0%
Eos [8]: 0.8%
Fbg [8]: 339.6 mg/dL
Hb [8]: 13 g/dL
Ht [8]: 39%
Lym [8]: 78.2%
MCH [8]: 20.8 pg
MCHC [8]: 33.4%
MCV [8]: 62.1 fL
Mono [8]: 2.6%
Neu [8]: 17.2%
PT [8]: 15.7 s
Plat [8]: 113.2 x10_4/uL
RBC [8]: 627.8 x10_4/ul
Ret [8]: 6.6%
WBC [8]: 86.7 x10_2/uL
KIDNEY_L [8]: 1 g
KIDNEY_R [8]: 1 g
KIDNEY_TOTAL [8]: 2 g
LIVER [8]: 11.4 g
A/G [8]: 1.3
ALP [8]: 1398.4 IU/L
ALT [8]: 41.2 IU/L
AST [8]: 66.6 IU/L
BUN [8]: 14 mg/dL
CRE [8]: 0.1 mg/dL
Ca [8]: 10.9 mg/dL
Cl [8]: 106 meq/L
DBIL [8]: 0 mg/dL
GLC [8]: 186.8 mg/dL
IP [8]: 7.5 mg/dL
K [8]: 4 meq/L
LDH [8]: 153.2 IU/L
Na [8]: 143.4 meq/L
PL [8]: 149.8 mg/dL
RALB [8]: 3.1 g/dL
TBIL [8]: 0.008 mg/dL
TC [8]: 82 mg/dL
TG [8]: 125.8 mg/dL
TP [8]: 5.4 g/dL
gamma-GTP [8]: 2 IU/L

From ChEMBL document CHEMBL3885861, “Open TG-GATES”
